Data published in ChEMBL document CHEMBL1137000, “Synthesis and antibacterial activity of some novel imidazole-based dicationic quinolinophanes” (2009).
≈ marks a conversion by molar mass, not a printed value.

What was measured:
Format in all cases: functional
Shigella sp. = assay: Antibacterial activity against Shigella sp. after 48 hrs by agar well diffusion method
Staphylococcus aureus = assay: Antibacterial activity against Staphylococcus aureus after 48 hrs by agar well diffusion method
Pseudomonas aeruginosa = assay: Antibacterial activity against Pseudomonas aeruginosa after 48 hrs by agar well diffusion method
Klebsiella pneumoniae = assay: Antibacterial activity against Klebsiella pneumoniae after 48 hrs by agar well diffusion method
Vibrio cholerae = assay: Antibacterial activity against Vibrio cholerae after 48 hrs by agar well diffusion method
Escherichia coli = assay: Antibacterial activity against Escherichia coli after 48 hrs by agar well diffusion method

Compound	MIC (Shigella sp.)	MIC (Staphylococcus aureus)	MIC (Pseudomonas aeruginosa)	MIC (Klebsiella pneumoniae)	MIC (Vibrio cholerae)	MIC (Escherichia coli)
[Br-].[Br-].c1cc2cc(c1)C[n+]1ccn(c1)Cc1cc3ccccc3nc1Oc1ccccc1Oc1nc3ccccc3cc1Cn1cc[n+](c1)C2	45 µg/mL	45 µg/mL	30 µg/mL	40 µg/mL	35 µg/mL	30 µg/mL
[Br-].[Br-].c1cc2cc(c1)C[n+]1ccn(c1)Cc1cc3ccccc3nc1Oc1ccc3ccccc3c1-c1c(ccc3ccccc13)Oc1nc3ccccc3cc1Cn1cc[n+](c1)C2	15 µg/mL	15 µg/mL	25 µg/mL	10 µg/mL	10 µg/mL	20 µg/mL
[Br-].[Br-].c1cc2nc(c1)C[n+]1ccn(c1)Cc1cc3ccccc3nc1Oc1ccccc1Oc1nc3ccccc3cc1Cn1cc[n+](c1)C2	25 µg/mL	30 µg/mL	25 µg/mL	25 µg/mL	15 µg/mL	20 µg/mL
[Br-].[Br-].c1cc2cc(c1)C[n+]1cn(c3ccccc31)Cc1cc3ccccc3nc1Oc1ccccc1Oc1nc3ccccc3cc1Cn1c[n+](c3ccccc31)C2	55 µg/mL	45 µg/mL	40 µg/mL	60 µg/mL	25 µg/mL	30 µg/mL
[Br-].[Br-].c1cc2nc(c1)C[n+]1cn(c3ccccc31)Cc1cc3ccccc3nc1Oc1ccc3ccccc3c1-c1c(ccc3ccccc13)Oc1nc3ccccc3cc1Cn1c[n+](c3ccccc31)C2	45 µg/mL	45 µg/mL	20 µg/mL	30 µg/mL	45 µg/mL	30 µg/mL
[Br-].[Br-].c1cc2nc(c1)C[n+]1ccn(c1)Cc1cc3ccccc3nc1Oc1ccc3ccccc3c1-c1c(ccc3ccccc13)Oc1nc3ccccc3cc1Cn1cc[n+](c1)C2	10 µg/mL	15 µg/mL	20 µg/mL	15 µg/mL	10 µg/mL	10 µg/mL
CN[C@@H]1[C@H](O[C@H]2[C@H](O[C@H]3[C@H](O)[C@@H](O)[C@H](N=C(N)N)[C@@H](O)[C@@H]3N=C(N)N)O[C@@H](C)[C@]2(O)C=O)O[C@@H](CO)[C@H](O)[C@H]1O [STREPTOMYCIN]	25 µg/mL (≈ 43 µM)	25 µg/mL (≈ 43 µM)	45 µg/mL (≈ 77.4 µM)	25 µg/mL (≈ 43 µM)	25 µg/mL (≈ 43 µM)	20 µg/mL (≈ 34.4 µM)
[Br-].[Br-].c1cc2nc(c1)C[n+]1cn(c3ccccc31)Cc1cc3ccccc3nc1Oc1ccccc1Oc1nc3ccccc3cc1Cn1c[n+](c3ccccc31)C2	40 µg/mL	35 µg/mL	25 µg/mL	45 µg/mL	30 µg/mL	35 µg/mL
[Br-].[Br-].c1cc2cc(c1)C[n+]1cn(c3ccccc31)Cc1cc3ccccc3nc1Oc1ccc3ccccc3c1-c1c(ccc3ccccc13)Oc1nc3ccccc3cc1Cn1c[n+](c3ccccc31)C2	10 µg/mL	15 µg/mL	25 µg/mL	15 µg/mL	10 µg/mL	15 µg/mL
